Experimental data from patent publication US8507560B2, “Pharmaceutical compositions comprising 3,4-dihydroisoquinolin-2(1H)-yl-3-phenylurea derivatives having formyl peptide receptor like-1 (FPRL-1) agonist or antagonist activity” (Allergan, Inc., priority 2010, dated 2013).

Molecular target: T1, FPRL-1 (Homo sapiens, UniProt P25090)
T1 construct: expressed in transfected cells
T1 sequence (P25090 1-351): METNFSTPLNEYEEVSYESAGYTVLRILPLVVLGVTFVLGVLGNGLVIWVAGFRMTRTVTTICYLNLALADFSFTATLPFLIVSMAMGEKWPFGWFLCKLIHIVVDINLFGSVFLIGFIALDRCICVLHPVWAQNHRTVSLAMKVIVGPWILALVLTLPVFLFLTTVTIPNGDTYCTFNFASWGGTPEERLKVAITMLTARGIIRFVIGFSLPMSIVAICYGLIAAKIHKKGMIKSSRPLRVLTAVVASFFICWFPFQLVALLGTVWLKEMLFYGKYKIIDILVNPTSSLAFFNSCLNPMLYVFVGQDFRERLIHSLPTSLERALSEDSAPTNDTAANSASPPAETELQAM
Test: FLIPR Tetra calcium activity assay in CHO-Ga16 cells stably expressing FPRL1
Assay type: cell-based
Conditions: compound-induced calcium activity; for EC50: 0.61 to 10,000 nM; for FPRL-1 Ga16-CHO (eff) efficacy: efficacy value in parentheses
Protocol: CHO-Ga16 cells stably expressing FPRL1 were cultured in (F12, 10% FBS, 1% PSA, 400 μg/ml geneticin and 50 μg/ml hygromycin) and HEK-Gqi5 cells stable expressing FPR1 were cultured in (DMEM high glucose, 10% FBS, 1% PSA, 400 μg/ml geneticin and 50 μg/ml hygromycin). In general, the day before the experiment, 18,000 cells/well were plated in a 384-well clear bottom poly-d-lysine coated plate. The following day the screening compound-induced calcium activity was assayed on the FLIPR^Tetra. The drug plates were prepared in 384-well microplates using the EP3 and the MultiPROBE robotic liquid handling systems. Compounds were tested at concentrations ranging from 0.61 to 10,000 nM. Results are expressed as EC50 (nM) and efficacy values.

Question: With `COc1cc2c(cc1OC)CN(C(=O)C(CCCCNC(=O)c1ccco1)NC(=O)Nc1ccc(C)cc1)CC2` (centres unmarked) [Compound 1] as the compound, how does the EC50 read?
Answer: 143 nM

Question: And the “FPRL-1 Ga16-CHO (eff) efficacy” value?
Answer: 0.61

Question: What does the source list for `COc1cc2c(cc1OC)CN(C(=O)C(CCCCNC(=O)Nc1ccccc1)NC(=O)Nc1ccc(Br)cc1)CC2` (centres unmarked) [Compound 2]?
Answer: EC50: 91 nM; FPRL-1 Ga16-CHO (eff) efficacy: 0.79

Question: What does the source list for `COc1cc2c(cc1OC)CN(C(=O)C(CCCCNC(=O)Nc1ccccc1)NC(=O)Nc1ccc(SC)cc1)CC2` (centres unmarked) [Compound 3]?
Answer: EC50: 32 nM; FPRL-1 Ga16-CHO (eff) efficacy: 0.76

Question: For `COc1cc2c(cc1OC)CN(C(=O)C(CCCCNC(=O)NC1CCCCC1)NC(=O)Nc1ccc(SC)cc1)CC2` (centres unmarked) [Compound 4], which EC50 is on record?
Answer: 59 nM

Question: What about the “FPRL-1 Ga16-CHO (eff) efficacy” value of the same compound?
Answer: 0.71
